The experiment has as its system 4T1-HER2 expressing tumors. As to the kind of experiment: Survivin expression in the mouse 4T1-HER2 tumor model. It is filed as in vivo.

With `CS(=O)(=O)CCNCc1ccc(-c2ccc3ncnc(Nc4ccc(OCc5cccc(F)c5)c(Cl)c4)c3c2)o1` [lapatinib], the survivin expression result is reported as “no change in survivin expression”.

Source of the values: patent US11235043B2, “Vaccines against antigens involved in therapy resistance and methods of using same” (Duke University, priority 2012, dated 2022).
